The record followed here is patent US6068850A, “Aqueous formulations of peptides” (Alza Corporation, priority 1999, dated 2000).

Data set [1] in a line: Stability of 40-45% goserelin formulations, one month at 37° C., RP-HPLC. Particulars: for % PURITY / % CONCENTRATION: 40-45% (w/w); for % CONCENTRATION: patent calls these data inconclusive. Format: physicochemical. How it is done:
Stability samples were analyzed using RP-HPLC. The area under the curve for the leuprolide peak divided by the sum of the areas under the curve of all peaks gave % purity. […] Formulations of 40-45% (w/w) goserelin in either acetate buffer, with 3% mannitol or acetate buffer with salt (0.9% NaCl) were prepared as described above and placed in polymeric containers. The containers were stored at 37° C. for one month in an incubator. The samples were analyzed using RP-HPLC to determine the chemical stability of the aged formulations.

The nature of data set [2]: Gelation of aqueous peptide formulations on adding polar aprotic solvents such as DMSO. Particulars: aqueous formulation. Format: physicochemical. An excerpt: Thus, these solvents have an anti-gellant effect.
Data set [3] can be described thus: Accelerated stability of 30% goserelin at 80° C., purity by RP-HPLC. Conditions: 30% (w/w) in acetate buffer pH 5.0 with 3% mannitol, glass ampules, after 9 days. It counts as physicochemical.
Data set [4] is described as follows: Stability of 40% leuprolide acetate formulations after 2.5 megarad gamma irradiation and accelerated aging, RP-HPLC and SEC. It counts as physicochemical. Conditions: for % Leuprolide at Day 7 (RP-HPLC) / SEC Day 0 % dimer/trimer / SEC Day 0 % monomer / SEC Day 7 % dimer/trimer / SEC Day 7 % monomer: 40% in Water. How it is done:
(§1) The chromatographic conditions used are listed below.
Formulations of 40% (w/w) as received leuprolide acetate (equivalent to 37% leuprolide free base) in water were prepared as described above and used to fill the reservoirs of drug delivery devices, also as described above. Some reservoirs were made of polymer materials, while some were titanium.
The filled devices were subjected to 2.5 megarad gamma irradiation. Samples were shipped to Sterigenics (Tustin, Calif.) and gamma irradiated (Cobalt 60) in batch mode. Samples were then subjected to accelerated aging as in Example 1. Samples labeled "cold" were shipped and irradiated on dry ice. Samples were taken at day 0 and day 7, and analyzed using RP-HPLC and SEC as described above to determine the chemical and physical stability of the irradiated formulations.

How the values of data set [5] were obtained:
as §1
Selected stability samples were analyzed for % peak area and molecular weights using an isocratic solution SEC assay with a refrigerated autosampler (4° C.). The chromatographic conditions used are listed below.
Solutions of 40% leuprolide acetate (w/w) in water were prepared, loaded into reservoirs, stored for two months at 80° C. and analyzed as described above.
Leuprolide acetate solutions (40% (w/w) in water) were prepared, loaded, stored at 37° C., 50° C., 65° C. or 80° C. and analyzed using RP-HPLC as described above.
Solutions of 40% leuprolide acetate (w/w) in water were prepared, loaded into reservoirs, stored at 37° C., 50° C., 65° C. or 80° C. and analyzed using RP-HPLC as described above.

The format of data set [6] is physicochemical. Conditions: for evaporated from reservoir / % Leuprolide at Day 7: 88° C.; for evaporated from reservoir: 7 days. An excerpt:
The reservoirs of implantable drug delivery devices (as disclosed in U.S. patent application Ser. No. 08/595,761, incorporated herein by reference) were filled with the appropriate leuprolide acetate solution. The filled devices then underwent stability testing. The formulation was filled into titanium or polymer reservoirs with a polymer plug blocking each end. The filled reservoir was then sealed in a polyfoil bag and placed in a stability testing oven. […] The chromatographic conditions used are listed below. Leuprolide standards (in water) at 4 to 6 different concentration levels, typically between 0.1-1.2 mg/mL, were run along with the stability samples. The stability samples were bracketed by the standard sets, with no more than 40 samples in between the standard sets. All peaks between the void volume and 45 minutes of the run were integrated. The integrated peak areas for the leuprolide standards were plotted as a function of the concentration. The leuprolide concentrations for the stability samples were then calculated using linear regression. The % peak areas for the leuprolide peak, the sum of all the peaks eluting before leuprolide (labeled "others"), and the sum of all the peaks eluting after leuprolide (labeled "aggregates") were also recorded and plotted as a function of the sample timepoints. Formulations of 40% (w/w) leuprolide acetate (equivalent to about 37% leuprolide free base) in either sterile distilled water, ethanol/water (70/30) or water with 10% Tween 20 were prepared as described above and used to fill the reservoirs of implantable drug delivery devices, also as described above. Some reservoirs were made of polymer materials, while some were titanium. The filled devices were subjected to accelerated aging by storing them at elevated temperatures (80-88° C.) for seven days in an incubator (Precision Scientific or Thelco). This is equivalent to about 1.5 years at 37° C. or about four years at room temperature (25° C.), assuming an activation energy (Ea) or 22.2 kcal/mole. The samples were analyzed using RP-HPLC and SEC as described above to determine the chemical and physical stability of the aged formulations.

A further data set has as its system bacteria. The data set can be described thus: Bacteriostatic, bactericidal and sporicidal activity of leuprolide formulations; spiking with bacteria. Conditions: formulations of 50-400 mg/ml.
For data set [7] the following is noted: 40% in water, nine months at 37° C., RP-HPLC.
Procedure: All stability samples were analyzed for leuprolide concentration and % peak area using a gradient elution reversed-phase HPLC assay with a refrigerated autosampler (4° C.) to minimize sample degradation.
A short description of data set [8]: Stability of 15% nafarelin formulation, one month at 37° C., RP-HPLC. It counts as physicochemical. Particulars: 15% (w/w), Acetate Buffer/Mannitol. How it is done: Stability samples were analyzed using RP-HPLC. The area under the curve for the leuprolide peak divided by the sum of the areas under the curve of all peaks gave % purity. […] Formulations of 15% (w/w) nafarelin in acetate buffer with 3% mannitol were prepared as described above and placed in polymeric containers. The containers were stored at 37° C. for one month in an incubator. The samples were analyzed using RP-HPLC to determine the chemical stability of the aged formulations.

The mark [9] stands for this setting: Acetate Buffer/Salt (0.9% NaCl).
Setting [10] is: all Table IV formulations, after irradiation and 7 days accelerated aging.
The mark [11] stands for this setting: polymer reservoir, irradiated cold (on dry ice).
The mark [12] stands for this setting: polymer reservoir, not irradiated.
The mark [13] stands for this setting: titanium reservoir, not irradiated.

Values joined by “and” are separate entries in the source; they are usually repeats but may differ in a detail not shown here. Equal values may be shown once. Read-outs that look alike come from different tables or passages of the source.

Take `CC(C)C[C@H](NC(=O)[C@@H](COC(C)(C)C)NC(=O)[C@H](Cc1ccc(O)cc1)NC(=O)[C@H](CO)NC(=O)[C@H](Cc1c[nH]c2ccccc12)NC(=O)[C@H](Cc1cnc[nH]1)NC(=O)[C@@H]1CCC(=O)N1)C(=O)N[C@@H](CCCNC(=N)N)C(=O)N1CCC[C@H]1C(=O)NNC(N)=O` [Goserelin, goserelin]: in [1] (Acetate Buffer/Mannitol), the “% PURITY” value is 98.1% and the “% CONCENTRATION” value was 54.2%. In [1] (setting [9]), the “% PURITY” value worked out at 98.0% and the “% CONCENTRATION” value worked out at 50.1%. Further, the “goserelin retained, in each case” value in data set [1] (both vehicles) is “at least 98%”. The “effect of adding polar aprotic solvents such as DMSO on gelation” value (“effect” below) in data set [2] was “prevents gelation”. In addition, the goserelin remained entry in data set [3] was “about 65%”.

Regarding `CCNC(=O)[C@@H]1CCCN1C(=O)[C@H](CCCNC(=N)N)NC(=O)[C@H](CC(C)C)NC(=O)[C@@H](CC(C)C)NC(=O)[C@H](Cc1ccc(O)cc1)NC(=O)[C@H](CO)NC(=O)[C@H](Cc1c[nH]c2ccccc12)NC(=O)[C@H](Cc1c[nH]cn1)NC(=O)[C@@H]1CCC(=O)N1` [Leuprolide Acetate, leuprolide acetate], in data set [4] (setting [10]), the aggregate formation result is “low levels of aggregate formation”. In addition, the “leuprolide retained, in every case” value in [4] (setting [10]) was “at least 65%”. The “% Leuprolide at Day 7 (RP-HPLC)” value in data set [4] (polymer reservoir, irradiated) was 75%; in data set [4] (setting [11]) it was 79%; in data set [4] (setting [12]), 75%; in data set [4] (titanium reservoir, irradiated) it was 83% and 81% and 73% and 79% and 74%; in data set [4] (setting [13]), 82%. Moreover, the “SEC Day 0 % dimer/trimer” value in data set [4] (polymer reservoir, irradiated) was 1.2%; in data set [4] (setting [11]), 0.2%; in data set [4] (setting [12]), 0.2%; in data set [4] (titanium reservoir, irradiated) it was 1.1% and 0.9% and 0.8% and 0.5%; in data set [4] (setting [13]), 0%. The “SEC Day 0 % monomer” value is 90.4% in data set [4] (polymer reservoir, irradiated); 89.4% in [4] (setting [11]); 99.8% in data set [4] (setting [12]); 98.5% and 98.8% and 99.1% and 99% and 98.6% in data set [4] (titanium reservoir, irradiated); 99.6% and 99.9% in [4] (setting [13]). Also, the “SEC Day 7 % dimer/trimer” value in data set [4] (polymer reservoir, irradiated) is 3.9%; in [4] (setting [11]) it was 3.1%; in [4] (setting [12]), 3.1%; in [4] (titanium reservoir, irradiated), 2% and 2.4% and 3% and 3.4% and 3.6%; in data set [4] (setting [13]), 0% and 1.9%. The “SEC Day 7 % monomer” value in [4] (polymer reservoir, irradiated) is 80.9%; in [4] (setting [11]), 80.3%; in data set [4] (setting [12]) it was 82.4%; in data set [4] (titanium reservoir, irradiated), 84.9% and 94.7% and 88.3% and 94.3% and 90.9%; in [4] (setting [13]), 96.6% and 95%. Also, the “effect” value in [2] is recorded as “prevents gelation”. Also, the chemical degradation in data set [5] is 14.6%. Also, the “activation energy (Ea) of leuprolide loss” value in data set [5] (40% (w/w) in water, 37-80° C.) worked out at 22.2 kcal/mol. The Kobs in [5] (40% (w/w) in water, 37° C.) was 7.24 × 10^-3 months^-1; in data set [5] (40% (w/w) in water, 50° C.), 3.21 × 10^-2 months^-1; in [5] (40% (w/w) in water, 65° C.) it was 0.111 months^-1; in [5] (40% (w/w) in water, 80° C.), 0.655 months^-1. The t1/2 in data set [5] (40% (w/w) in water, 37° C.) was 95.7 months; in [5] (40% (w/w) in water, 50° C.), 21.6 months; in [5] (40% (w/w) in water, 65° C.), 6.3 months; in [5] (40% (w/w) in water, 80° C.), 1.1 months. Besides, the t90 in data set [5] (40% (w/w) in water, 37° C.) is on record as 13.8 months. Further, the physical aggregation in [5] (40% (w/w) in water, two months at 80° C.) was 5.1%. In data set [5] (40% (w/w) in water, two months at 80° C., RP-HPLC), this compound displayed a leuprolide recovered of 81.1%. For the same compound, in data set [5] (40% in water, two months at 80° C., dimer and trimer only), the “aggregation by SEC (FIG. 2)” value was “very little aggregation”. Also, the evaporated from reservoir is given as 60% in [6] (polymer reservoir, 40% in EtOH/H2O) and 10% in [6] (polymer reservoir, 40% in Water (sample with 66% leuprolide)). For the same compound, the “% Leuprolide at Day 7” value was 65% in data set [6] (polymer reservoir, 40% in 10% Tween 20); 85% in data set [6] (polymer reservoir, 40% in EtOH/H2O (70/30)); 68% and 66% in data set [6] (polymer reservoir, 40% in Water); 71% in data set [6] (titanium reservoir, 40% in Water). Moreover, the “leuprolide retained, in each case” value in [6] (all Table III formulations, 7 days at 80-88° C.) is on record as “at least 65%”. For the same compound, the antimicrobial activity entry in the data set on bacteria was “bacteriostatic, bactericidal and sporicidal activity”. The “stability of samples after spiking with bacteria” value in the data set with bacteria is reported as “unaffected”. In data set [7], the leuprolide present is given as 88.3%. The “physical aggregates ("late")” value in data set [7] was 3.5%.

Take `CC(C)C[C@H](NC(=O)[C@@H](Cc1ccc2ccccc2c1)NC(=O)[C@H](Cc1ccc(O)cc1)NC(=O)[C@H](CO)NC(=O)[C@H](Cc1c[nH]c2ccccc12)NC(=O)[C@H](Cc1c[nH]cn1)NC(=O)[C@@H]1CCC(=O)N1)C(=O)N[C@@H](CCCNC(=N)N)C(=O)N1CCC[C@H]1C(=O)NCC(N)=O` [Nafarelin, nafarelin]: in data set [8], the “% PURITY” value stood at 98.8% and the nafarelin retained entry was “at least 98%”. Moreover, in data set [8] (patent calls these data inconclusive), the “% CONCENTRATION” value was 18.3%.

Regarding calcitonin, the “effect” value in data set [2] was “prevents gelation”.
